Measurements as given in patent US20220265667A1 (priority 2019, published 2022).
Read-outs that look alike come from different tables or passages of the source.

Tests used:
[1] = system: human nasal tissue mast cells activated with LPS; assay: Ex vivo LPS-induced tryptase release (degranulation) of human nasal tissue mast cells; assay type: cell-based; details: for Tryptase: with LPS; for inhibition at 3 µM / inhibition at 10 µM / inhibition at 30 µM / inhibition at 60 µM / IC50: Homo sapiens, Mast cell; for inhibition at 3 µM / inhibition at 10 µM / inhibition at 30 µM / inhibition at 60 µM: read-out: percentage inhibition of degranulation (tryptase); for IC50: read-out: IC50 ex vivo inhibition of tryptase release; for HillSlope / LogIC50: LPS
Description: (§1) Fresh human nasal mucosa was used (middle nasal turbinate), which was surgically removed as standard procedure during nose correction surgeries (septorhinoplasty with conchotomy). Only tissues from those patients who had not previously received medication in the form of cortisone preparations or antihistamines were used. The removed tissue was cleansed immediately after the surgical removal with Epilife Medium (Thermo Fisher Scientific, No. […]500), referred to as “medium” in terms of ex vivo experiments, a chemically defined, serum-free full medium for epithelial cells and keratinocytes. The tissue was then cut into 12 pieces of equal size, cleansed again in the medium, and the exact fresh weight of the cut tissue pieces was determined for later normalization and then stored overnight in cold medium. The weight of the tissue pieces varied between 10 and 20 mg.
After an one hour of pre-incubation with the respective compositions i), ii) or iii), 4 μg/ml lipopolysaccharide (LPS, Sigma-Aldrich GmbH, L4516) was added to each well—except for one well serving as the negative control—in order to induce tryptase degranulation. Then, 250 μl supernatant were taken from each well at the time points of 15 minutes, 60 minutes (one hour), 120 minutes (two hours), 240 minutes (four hours), 480 minutes (eight hours), and 1200 minutes (20 hours) after stimulation with LPS and the supernatants were directly frozen. Immediately after the removal of 250 μl supernatant, the volume in each well was increased to the original level and the original composition by adding 250 μl of the respective composition i), ii) and iii).
(§2) For the determination of the amount of degranulated tryptase, the frozen supernatants were thawed at 22° C. and then subjected to a tryptase ELISA Kit from Boster Biological Technology Co., Ltd (No. EZ0898, Assay Range: 156-10000 pg/ml, Sensitivity: <15 pg/ml) according to manufacturer's instructions, and the ELISA measurements were performed with the Multiskan Go instrument from Thermo Scientific and the SkanIt Re 4.1 software.
(§3) The statistical analysis was conducted in two steps. In a first step, the raw measurement values were normalized to 10 mg tissue. In a second step, a correction factor was introduced for all time points of supernatant removal to compensate for the 250 μl supernatant taken for analysis at each time and the subsequent re-addition of medium incl. factors. The statistical calculations were performed with Microsoft Excel 2010.
(§4) For the analysis, a non-linear regression (variable slope—4-parametric) was used. The program setting “Dose-Response-Inhibition” was applied for an automatic calculation, readout and display of the IC50 values.

[2] = system: human nasal tissue mast cells activated with SCF; assay: Ex vivo SCF-induced tryptase release (degranulation) of human nasal tissue mast cells; assay type: cell-based; details: for Tryptase: with SCF; for inhibition at 1 µM / inhibition at 3 µM / inhibition at 10 µM / inhibition at 30 µM / inhibition at 60 µM / inhibition at 150 µM / inhibition at 300 µM / IC50: Homo sapiens, Mast cell; for inhibition at 1 µM / inhibition at 3 µM / inhibition at 10 µM / inhibition at 30 µM / inhibition at 60 µM / inhibition at 150 µM / inhibition at 300 µM: read-out: percentage inhibition of degranulation (tryptase); for IC50: read-out: IC50 ex vivo inhibition of tryptase degranulation; for HillSlope / LogIC50: SCF
Description: as §1
After an one hour of pre-incubation with the respective compositions i) or ii), 0.4 μg/ml stem cell growth factor (SCF, Peprotech) was added to each well—except for one well serving as the negative control—in order to induce tryptase degranulation. […] Immediately after the removal of 250 μl supernatant, the volume in each well was increased to the original level and the original composition by adding 250 μl of the respective composition i), and ii).
as §2, §3, §4

[3] = summary statement, mast cells of human nasal pieces

CCNC1=Nc2ccc(Cl)cc2C(C)(c2ccccc2)O1 (racemic) [Etifoxine, 6-Chloro-2-N-ethyl-4-methyl-4-phenyl-4H-3,1-benzoxazine-2-amine]
Tryptase ([1]; 3 μM Etifoxine, 15 min): 1107.7 pg/ml/10 mg tissue
Tryptase ([1]; 3 μM Etifoxine, 60 min): 1822.9 pg/ml/10 mg tissue
Tryptase ([1]; 3 μM Etifoxine, 120 min): 2116.7 pg/ml/10 mg tissue
Tryptase ([1]; 3 μM Etifoxine, 240 min): 3032.7 pg/ml/10 mg tissue
Tryptase ([1]; 3 μM Etifoxine, 480 min): 3622.0 pg/ml/10 mg tissue
Tryptase ([1]; 3 μM Etifoxine, 1200 min): 5419.5 pg/ml/10 mg tissue
Tryptase ([1]; 10 μM Etifoxine, 15 min): 763.6 pg/ml/10 mg tissue
Tryptase ([1]; 10 μM Etifoxine, 60 min): 1252.6 pg/ml/10 mg tissue
Tryptase ([1]; 10 μM Etifoxine, 120 min): 2035.3 pg/ml/10 mg tissue
Tryptase ([1]; 10 μM Etifoxine, 240 min): 2901.8 pg/ml/10 mg tissue
Tryptase ([1]; 10 μM Etifoxine, 480 min): 3275.1 pg/ml/10 mg tissue
Tryptase ([1]; 10 μM Etifoxine, 1200 min): 4687.0 pg/ml/10 mg tissue
Tryptase ([1]; 30 μM Etifoxine, 15 min): 676.0 pg/ml/10 mg tissue
Tryptase ([1]; 30 μM Etifoxine, 60 min): 857.5 pg/ml/10 mg tissue
Tryptase ([1]; 30 μM Etifoxine, 120 min): 1619.4 pg/ml/10 mg tissue
Tryptase ([1]; 30 μM Etifoxine, 240 min): 2276.4 pg/ml/10 mg tissue
Tryptase ([1]; 30 μM Etifoxine, 480 min): 2678.2 pg/ml/10 mg tissue
Tryptase ([1]; 30 μM Etifoxine, 1200 min): 3675.9 pg/ml/10 mg tissue
Tryptase ([1]; 60 μM Etifoxine, 15 min): 881.1 pg/ml/10 mg tissue
Tryptase ([1]; 60 μM Etifoxine, 60 min): 1054.5 pg/ml/10 mg tissue
Tryptase ([1]; 60 μM Etifoxine, 120 min): 1592.2 pg/ml/10 mg tissue
Tryptase ([1]; 60 μM Etifoxine, 240 min): 2241.2 pg/ml/10 mg tissue
Tryptase ([1]; 60 μM Etifoxine, 480 min): 2720.1 pg/ml/10 mg tissue
Tryptase ([1]; 60 μM Etifoxine, 1200 min): 3472.1 pg/ml/10 mg tissue
inhibition at 3 µM ([1]; 2 h): 79%
inhibition at 10 µM ([1]; 2 h): 83%
inhibition at 30 µM ([1]; 2 h): 105%
inhibition at 60 µM ([1]; 2 h): 106%
inhibition at 3 µM ([1]; 4 h): 104%
inhibition at 10 µM ([1]; 4 h): 107%
inhibition at 30 µM ([1]; 4 h): 123%
inhibition at 60 µM ([1]; 4 h): 124%
IC50 ([1]; 2 hours (120 minutes) after LPS addition): 14.7 µM
IC50 ([1]; 4 hours (240 minutes) after LPS addition): 15.1 µM
HillSlope ([1]; Tryptase 2 h): −4.183
LogIC50 ([1]; Tryptase 2 h): 1.168
HillSlope ([1]; Tryptase 4 h): −4.101
LogIC50 ([1]; Tryptase 4 h): 1.179
inhibition of LPS-triggered tryptase degranulation achieved (complete) [1, 3]: 100%
Tryptase ([2]; 1 μM Etifoxine, 120 min): 12.1 pg/ml/10 mg tissue
Tryptase ([2]; 1 μM Etifoxine, 240 min): 1113.7 pg/ml/10 mg tissue
Tryptase ([2]; 1 μM Etifoxine, 480 min): 1791.7 pg/ml/10 mg tissue
Tryptase ([2]; 1 μM Etifoxine, 1440 min): 5547.4 pg/ml/10 mg tissue
Tryptase ([2]; 3 μM Etifoxine, 120 min): 38.7 pg/ml/10 mg tissue
Tryptase ([2]; 3 μM Etifoxine, 240 min): 1030.3 pg/ml/10 mg tissue
Tryptase ([2]; 3 μM Etifoxine, 480 min): 1789.0 pg/ml/10 mg tissue
Tryptase ([2]; 3 μM Etifoxine, 1440 min): 5512.9 pg/ml/10 mg tissue
Tryptase ([2]; 10 μM Etifoxine, 120 min): 71.9 pg/ml/10 mg tissue
Tryptase ([2]; 10 μM Etifoxine, 240 min): 594.5 pg/ml/10 mg tissue
Tryptase ([2]; 10 μM Etifoxine, 480 min): 1284.9 pg/ml/10 mg tissue
Tryptase ([2]; 10 μM Etifoxine, 1440 min): 3185.9 pg/ml/10 mg tissue
Tryptase ([2]; 30 μM Etifoxine, 120 min): 109.4 pg/ml/10 mg tissue
Tryptase ([2]; 30 μM Etifoxine, 240 min): 449.9 pg/ml/10 mg tissue
Tryptase ([2]; 30 μM Etifoxine, 480 min): 979.7 pg/ml/10 mg tissue
Tryptase ([2]; 30 μM Etifoxine, 1440 min): 2400.2 pg/ml/10 mg tissue
Tryptase ([2]; 60 μM Etifoxine): 1218.2 pg/ml/10 mg tissue
Tryptase ([2]; 60 μM Etifoxine, 120 min): 152.7 pg/ml/10 mg tissue
Tryptase ([2]; 60 μM Etifoxine, 240 min): 345.9 pg/ml/10 mg tissue
Tryptase ([2]; 60 μM Etifoxine, 480 min): 689.7 pg/ml/10 mg tissue
Tryptase ([2]; 150 μM Etifoxine): 1040.1 pg/ml/10 mg tissue
Tryptase ([2]; 150 μM Etifoxine, 120 min): 163.3 pg/ml/10 mg tissue
Tryptase ([2]; 150 μM Etifoxine, 240 min): 576.8 pg/ml/10 mg tissue
Tryptase ([2]; 150 μM Etifoxine, 480 min): 1042.4 pg/ml/10 mg tissue
Tryptase ([2]; 300 μM Etifoxine, 120 min): 71.9 pg/ml/10 mg tissue
Tryptase ([2]; 300 μM Etifoxine, 240 min): 459.3 pg/ml/10 mg tissue
Tryptase ([2]; 300 μM Etifoxine, 480 min): 991.8 pg/ml/10 mg tissue
Tryptase ([2]; 300 μM Etifoxine, 1440 min): 559.4 pg/ml/10 mg tissue
inhibition at 1 µM ([2]; 4 h): 0%
inhibition at 3 µM ([2]; 4 h): 0%
inhibition at 10 µM ([2]; 4 h): 15%
inhibition at 30 µM ([2]; 4 h): 56%
inhibition at 60 µM ([2]; 4 h): 85%
inhibition at 150 µM ([2]; 4 h): 21%
inhibition at 300 µM ([2]; 4 h): 53%
inhibition at 1 µM ([2]; 8 h): 0%
inhibition at 3 µM ([2]; 8 h): 0%
inhibition at 10 µM ([2]; 8 h): 28%
inhibition at 30 µM ([2]; 8 h): 90%
inhibition at 60 µM ([2]; 8 h): 148%
inhibition at 150 µM ([2]; 8 h): 77%
inhibition at 300 µM ([2]; 8 h): 87%
IC50 ([2]; 4 hours after SCF addition): 6.12 µM
IC50 ([2]; 8 hours after SCF addition): 9.07 µM
HillSlope ([2]; Tryptase 4 h): −2.791
LogIC50 ([2]; Tryptase 4 h): 0.7865
HillSlope ([2]; Tryptase 8 h): −3.492
LogIC50 ([2]; Tryptase 8 h): 0.9578
inhibition of SCF-triggered tryptase release (degranulation) achieved (complete) [2, 3]: 100%
